Measured values published in patent US10556905B2, “Processes for preparing a diazabicyclooctane compound” (priority 2012, dated 2020).
≈ marks a conversion by molar mass, not a printed value. Read-outs that look alike come from different tables or passages of the source.

Legend:
[1] = tested on: sensitive tuberculosis (H37Rv); test: Anti-tubercle bacillus activity, liquid medium dilution MIC; assay type: cell-based; settings: for MIC: Mycobacterium tuberculosis, 168 h, alone, 7 days at 37° C., read-out: antibacterial activity (MIC) of β-lactam agent alone
[2] = tested on: P. aeruginosa ATCCBAA-47CR; test: microbe, parasite or virus in culture; assay type: cell-based; settings: Pseudomonas aeruginosa, ATCCBAA47CR; alone; AmpC constitutively-expressing P. aeruginosa; agar plate dilution; read-out: antibacterial activity (MIC) of PIPC alone
[3] = tested on: K. pneumoniae ATCCBAA-1705; test: microbe, parasite or virus in culture; settings: Klebsiella pneumoniae, ATCCBAA1705, read-out: antibacterial activity (MIC) of PIPC alone
E. coli MSC19503 = test: microbe, parasite or virus in culture; assay type: cell-based; settings: Escherichia coli, alone, CTX-M-15 (ESBL) and OXA-1 producing E. coli, agar plate dilution, read-out: antibacterial activity (MIC) of PIPC alone
OXA-2 = target: T1, OXA-2 (Escherichia coli, UniProt P0A1V9); test: biochemical; design: species or system P. aeruginosa
T1 construct: AmpC, TEM-1, KPC-2 or OXA-2 domain excluding signal peptide was amplified with PCR; made in house; host or cells: Escherichia coli BL21 (DE3), pET-28b(+)
T1 sequence (P0A1V9 22-275): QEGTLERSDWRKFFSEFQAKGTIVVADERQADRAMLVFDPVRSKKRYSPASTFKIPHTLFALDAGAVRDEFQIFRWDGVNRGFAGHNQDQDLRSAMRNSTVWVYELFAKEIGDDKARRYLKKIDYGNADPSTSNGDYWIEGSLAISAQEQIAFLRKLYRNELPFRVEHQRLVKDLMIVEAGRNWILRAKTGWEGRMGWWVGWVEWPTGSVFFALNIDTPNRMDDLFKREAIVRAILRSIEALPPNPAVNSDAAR

KPC-2 = target: T2, KPC-2 (Klebsiella pneumoniae, UniProt Q9F663); test: β-Lactamase inhibitory activity (nitrocefin hydrolysis), KPC-2; assay type: biochemical; settings: KPC-2 0.5 nM, 100 μM nitrocefin, pre-incubation 30° C. 10 minutes
T2 construct: AmpC, TEM-1, KPC-2 or OXA-2 domain excluding signal peptide was amplified with PCR; made in house; host or cells: Escherichia coli BL21 (DE3), pET-28b(+)
T2 sequence (Q9F663 25-293, looked up): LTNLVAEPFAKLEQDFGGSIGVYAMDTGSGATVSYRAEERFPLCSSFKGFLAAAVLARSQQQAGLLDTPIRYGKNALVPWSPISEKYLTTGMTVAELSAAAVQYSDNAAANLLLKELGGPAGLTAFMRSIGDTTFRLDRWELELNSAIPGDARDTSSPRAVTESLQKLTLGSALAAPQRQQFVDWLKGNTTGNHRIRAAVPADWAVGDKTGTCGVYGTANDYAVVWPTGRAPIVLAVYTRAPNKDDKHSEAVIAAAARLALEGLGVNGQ

AmpC = target: T3, AmpC (Pseudomonas aeruginosa, UniProt P24735); test: biochemical
T3 construct: AmpC, TEM-1, KPC-2 or OXA-2 domain excluding signal peptide was amplified with PCR; made in house; host or cells: Escherichia coli BL21 (DE3), pET-28b(+)
T3 sequence (P24735 27-397): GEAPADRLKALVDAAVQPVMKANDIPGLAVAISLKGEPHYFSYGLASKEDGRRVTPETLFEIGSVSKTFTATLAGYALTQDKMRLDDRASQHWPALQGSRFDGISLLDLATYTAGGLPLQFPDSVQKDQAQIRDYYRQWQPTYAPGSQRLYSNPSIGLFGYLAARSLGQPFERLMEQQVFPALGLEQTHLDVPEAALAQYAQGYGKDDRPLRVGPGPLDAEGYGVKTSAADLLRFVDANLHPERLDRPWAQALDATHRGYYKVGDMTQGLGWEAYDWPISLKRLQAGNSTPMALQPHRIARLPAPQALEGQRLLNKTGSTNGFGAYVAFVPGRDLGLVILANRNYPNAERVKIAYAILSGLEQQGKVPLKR

TEM-1 = target: T4, TEM-1 (Escherichia coli, UniProt P62593); test: β-Lactamase inhibitory activity (nitrocefin hydrolysis), TEM-1; assay type: biochemical; settings: TEM-1 0.1 nM, 100 μM nitrocefin, pre-incubation 30° C. 10 minutes
T4 construct: AmpC, TEM-1, KPC-2 or OXA-2 domain excluding signal peptide was amplified with PCR; made in house; host or cells: Escherichia coli BL21 (DE3), pET-28b(+)
T4 sequence (P62593 24-286 limits assumed): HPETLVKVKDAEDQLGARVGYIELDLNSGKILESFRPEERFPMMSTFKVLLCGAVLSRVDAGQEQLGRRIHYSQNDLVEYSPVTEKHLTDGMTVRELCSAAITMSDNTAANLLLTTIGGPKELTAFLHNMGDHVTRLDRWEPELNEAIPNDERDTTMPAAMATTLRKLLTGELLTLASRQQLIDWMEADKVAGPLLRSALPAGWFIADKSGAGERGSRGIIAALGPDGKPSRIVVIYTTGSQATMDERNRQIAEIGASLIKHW
In short: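 Recombinant TEM-1 (signal peptide removed), expressed in E. coli BL21(DE3), hydrolysing 100 μM nitrocefin (final) in 50 mM phosphate pH 7.0 with 2.5% DMSO and 10 μg/mL BSA. Incubated 20 min at 30° C; A492 read. Potency given as bands A (<0.1 μM) to E (≥10 μM).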

[4] = OXA-2 2 nM, 100 μM nitrocefin, pre-incubation 30° C. 10 minutes, read-out: β-Lactamase inhibitory activity OXA-2 (IC50)

| Structure (SMILES) | IC50 (OXA-2) [nM] | IC50 (KPC-2) [nM] | IC50 (AmpC) [nM] | IC50 (TEM-1) [nM] | IC50 (OXA-2; [4]) [nM] | other results |
| --- | --- | --- | --- | --- | --- | --- |
| C[C@@H](O)[C@H]1C(=O)N2C(C(=O)[O-])=C(SC3Cn4cnc[n+]4C3)[C@H](C)[C@H]12 (stereo partly shown) [BIPM, biapenem, reference compound] |  |  |  |  |  | MIC [1]: 1 µg/mL (≈ 2.85 µM) |
| C[C@@H](O)[C@H]1C(=O)N2C(C(=O)O)=C(SC3CN(C4=NCCS4)C3)[C@H](C)[C@H]12 [TBPM, tebipenem, reference compound] |  |  |  |  |  | MIC [1]: 0.5 µg/mL (≈ 1.3 µM) |
| CC1(C)S[C@@H]2[C@H](NC(=O)[C@H](N)c3ccccc3)C(=O)N2[C@H]1C(=O)O [ABPC, ampicillin, reference compound] |  |  |  |  |  | MIC [1]: 16 µg/mL (≈ 45.8 µM) |
| CCN1CCN(C(=O)N[C@@H](C(=O)N[C@@H]2C(=O)N3[C@@H]2SC(C)(C)[C@@H]3C(=O)O)c2ccccc2)C(=O)C1=O [PIPC, piperacillin] |  |  |  |  |  | MIC [2]: 64 µg/mL (≈ 124 µM); MIC [3]: > 128 µg/mL; MIC (E. coli MSC19503): > 128 µg/mL |
| CC1(C)S[C@@H]2[C@H](NC(=O)[C@H](N)c3ccc(O)cc3)C(=O)N2[C@H]1C(=O)O [AMPC, amoxicillin, reference compound] |  |  |  |  |  | MIC [1]: 16 µg/mL (≈ 43.8 µM) |
| C[C@@H](O)[C@H]1C(=O)N2C(C(=O)O)=C(S[C@@H]3CN[C@H](C(=O)N(C)C)C3)[C@H](C)[C@H]12 [MEPM, meropenem, reference compound] |  |  |  |  |  | MIC [1]: 1 µg/mL (≈ 2.61 µM) |
| O=C(NOCCN1CCCC1=O)[C@@H]1CC[C@@H]2CN1C(=O)N2OS(=O)(=O)O [Example 93, Sodium (2S,5R)-7-oxo-N-[2-(2-oxopyrrolidin-1-yl)ethoxy]-6-(sulfooxy)-1,6-diazabicyclo[3.2.1]octane-2-carboxamide] | 100 to 1000 | 100 to 1000 | < 100 | < 100 |  |  |
| CNCCONC(=O)[C@@H]1CC[C@@H]2CN1C(=O)N2OS(=O)(=O)O [Example 61, (2S,5R)—N-[2-(Methylamino)ethoxy]-7-oxo-6-(sulfooxy)-1,6-diazabicyclo[3.2.1]octane-2-carboxamide] |  | 1000 to 3000 | 100 to 1000 | < 100 | 1000 to 3000 |  |
| NCCONC(=O)[C@@H]1CC[C@@H]2CN1C(=O)N2OS(=O)(=O)O [Example 59, (2S,5R)—N-(2-Aminoethoxy)-7-oxo-6-(sulfooxy)-1,6-diazabicyclo[3.2.1]octane-2-carboxamide] |  | 100 to 1000 | 100 to 1000 | < 100 | 1000 to 3000 | antibacterial activity (MIC) of ABPC in combinatorial use ([1]; ABPC + 4 μg/mL compound): 2 µg/mL; antibacterial activity (MIC) of AMPC in combinatorial use ([1]; AMPC + 4 μg/mL compound): 2 µg/mL; antibacterial activity (MIC) of BIPM in combinatorial use ([1]; BIPM + 4 μg/mL compound): 1 µg/mL; antibacterial activity (MIC) of MEPM in combinatorial use ([1]; MEPM + 4 μg/mL compound): 0.5 µg/mL; antibacterial activity (MIC) of TBPM in combinatorial use ([1]; TBPM + 4 μg/mL compound): 0.25 µg/mL |
| CS(=O)(=O)CCONC(=O)[C@@H]1CC[C@@H]2CN1C(=O)N2OS(=O)(=O)O [Example 97, Sodium (2S,5R)—N-[2-(methylsulfonyl)ethoxy]-7-oxo-6-(sulfooxy)-1,6-diazabicyclo[3.2.1]octane-2-carboxamide] | 100 to 1000 | < 100 | < 100 | < 100 |  |  |
| CS(=O)(=O)NNC(=O)[C@@H]1CC[C@@H]2CN1C(=O)N2OS(=O)(=O)O [Example 54, Sodium (2S,5R)—N′-(methylsulfonyl)-7-oxo-6-(sulfooxy)-1,6-diazabicyclo[3.2.1]octane-2-carbohydrazide] | 100 to 1000 | 100 to 1000 | < 100 | < 100 |  |  |
| O=C(NOC[C@@H]1CCCCN1)[C@@H]1CC[C@@H]2CN1C(=O)N2OS(=O)(=O)O [Example 78, (2S,5R)-7-Oxo-N-[(2S)-piperidine-2-ylmethoxy]-6-(sulfooxy)-1,6-diazabicyclo[3.2.1]octane-2-carboxamide] |  | 1000 to 3000 | 100 to 1000 | < 100 | 1000 to 3000 |  |
| O=C(NNC(=O)[C@@H]1CC[C@@H]2CN1C(=O)N2OS(=O)(=O)O)[C@@H]1CCCN1 [Example 38, (2S,5R)-7-Oxo-N′-[(2S)-pyrrolidin-2-ylcarbonyl]-6-(sulfooxy)-1,6-diazabicyclo[3.2.1]octane-2-carbohydrazide] |  | 100 to 1000 | 100 to 1000 | < 100 | 1000 to 3000 |  |
| CN(NC(=O)[C@@H]1CC[C@@H]2CN1C(=O)N2OS(=O)(=O)O)C(=O)OC(C)(C)C (racemic) [Example 18, Sodium tert-butyl 1-methyl-2-{[(2SR,5RS)-7-oxo-6-(sulfooxy)-1,6-diazabicyclo[3.2.1]oct-2-yl]carbonyl}hydrazinecarboxylate] | 1000 to 3000 | 100 to 1000 | 100 to 1000 | < 100 |  |  |
| O=C(NNC(=O)[C@@H]1CC[C@@H]2CN1C(=O)N2OS(=O)(=O)O)c1cocn1 [Example 44, Sodium (2S,5R)—N′-(1,3-oxazol-4-ylcarbonyl)-7-oxo-6-(sulfooxy)-1,6-diazabicyclo[3.2.1]octane-2-carbohydrazide] | 1000 to 3000 | < 100 | < 100 | < 100 |  |  |
| CN(C)C(=O)NNC(=O)[C@@H]1CC[C@@H]2CN1C(=O)N2OS(=O)(=O)O [Example 47, Sodium N,N-dimethyl2-{[(2S,5R)-7-oxo-6-(sulfooxy)-1,6-diazabicyclo[3.2.1]oct-2-yl]carbonyl}hydrazinecarboxamide] | 3000 to 10000 | 100 to 1000 | 100 to 1000 | < 100 |  |  |
| Nc1ccc(C(=O)NNC(=O)[C@@H]2CC[C@@H]3CN2C(=O)N3OS(=O)(=O)O)cc1 [Example 31, (2S,5R)—N′-(4-Aminobenzoyl)-7-oxo-6-(sulfooxy)-1,6-diazabicyclo[3.2.1]octane-2-carbohydrazide] |  | 100 to 1000 | 100 to 1000 | < 100 | 3000 to 10000 |  |
| O=C(NNC(=O)N1CCOCC1)[C@@H]1CC[C@@H]2CN1C(=O)N2OS(=O)(=O)O [Example 50, Sodium (2S,5R)—N′-(morpholin-4-ylcarbonyl)-7-oxo-6-(sulfooxy)-1,6-diazabicyclo[3.2.1]octane-2-carbohydrazide] | 3000 to 10000 | 100 to 1000 | < 100 | 100 to 1000 |  |  |
| O=C(NNC(=O)[C@@H]1CC[C@@H]2CN1C(=O)N2OS(=O)(=O)O)C1CCNCC1 [Example 35, (2S,5R)-7-Oxo-N′-(piperidine-4-ylcarbonyl)-6-(sulfooxy)-1,6-diazabicyclo[3.2.1]octane-2-carbohydrazide] |  | 3000 to 10000 | 100 to 1000 | < 100 | 1000 to 3000 |  |
| O=C([C@@H]1CC[C@@H]2CN1C(=O)N2OS(=O)(=O)O)N1CCCO1 [Example 70, Sodium (2S,5R)-2-(1,2-oxazolidin-2-ylcarbonyl)-6-(sulfooxy)-1,6-diazabicyclo[3.2.1]octane-7-one] | 100 to 1000 | 100 to 1000 | 100 to 1000 | < 100 |  |  |
| O=C(NOCCn1ccnc1S(=O)(=O)O)[C@@H]1CC[C@@H]2CN1C(=O)N2OS(=O)(=O)O [Example 88, Disodium 1-{2-[({[(2S,5R)-7-oxo-6-(sulfonateoxy)-1,6-diazabicyclo[3.2.1]oct-2-yl]carbonyl}amino)oxy]ethyl}-1H-Imidazol-2-sulfonate] |  | 100 to 1000 | 100 to 1000 | < 100 | 100 to 1000 |  |
